In assay [1] the test system is cellulite-affected skin. The experiment in a line: topical treatment of cellulite-affected skin on the sides of a test subject by gliding a solid salt block. It counts as in vivo, human. The settings on record: person. From the text: […] This person may be a afflicted with cellulite on their sides, between their armpits and their waist.
Rather, […] sides are left moistened. Then, […] areas of his sides, by very gently gliding the block in dabbing motions, circular motions, up and down motions, or zigzag motions (the motions being insufficient to cause debridement and abrasion of the affected skin) on the moistened areas for about 15 to about 30 seconds. […]
This once daily application is continued for 5 weeks.

Assay [2] concerns cellulite-affected skin. In words: topical treatment of cellulite-affected skin on thighs and buttocks of female persons by gliding a solid salt block. It counts as in vivo, human.

Take `[Cl-].[Na+]` [NaCl, sodium chloride]: the “state of cellulite on continued application” value in the assay with cellulite-affected skin [1] (continued once per day application after 5 weeks) was “remain smooth and free of cellulite”; in the assay on cellulite-affected skin [2] (female, continued once per day application after 5 weeks) it was “remained free of cellulite”. Further, the “state of cellulite at the end of 5 weeks” value with cellulite-affected skin [1] (pre-moistened skin, once daily, end of 5 weeks) was “completely eliminated”; in the assay on cellulite-affected skin [2] (person, pre-moistened skin, once daily application, end of 5 weeks), “completely eliminated”. The “state of cellulite at the end of 2 weeks” value in the assay on cellulite-affected skin [2] (person, pre-moistened skin, once daily application for about 15 to 30 seconds, end of 2 weeks) is given as “alleviated”.

Values taken from patent US20030157194A1, “Method for treating cellulite” (priority 2002, published 2003).
